Results from patent US8541407B2 (ArQule, Inc., priority 2010, dated 2013).

Target: AKT1 (Homo sapiens (Human), UniProt P31749)
Assay: Inactive Akt HTRF Assay (AKT1)
Conditions: *labeled: Akt HTFR assay; read-out: AKT1 biochemical assay, IC50
Protocol: AKT1 activity was assayed using CisBio KinEASE™ HTRF Assay technology. This technology utilizes a proprietary biotinylated peptide substrate (STKS3), streptavidin labeled XL665 antibody, and STK antibody-Eu^3+-cryptate. AKT1 activation was achieved by the addition of the activating kinases PDK1 and MAPKAPK2, lipid vesicles, and ATP. The extent of STKS3 biotinylated peptide phosphorylation was determined using a phospho-STK antibody-Eu^3+-cryptate and streptavidin labeled XL665 antibody. XL665 was stimulated by Eu^3+-cryptate resulting in a TR-FRET signal proportional to the STKS3 phosphorylation level.
Representative compounds of the invention and controls ((S)-1-((5-(3-methyl-1H-indazol-5-yl)pyridin-3-yl)oxy)-3-phenylpropan-2-amine, 1-(1-(4-(7-phenyl-1H-imidazo[4,5-g]quinoxalin-6-yl)benzyl)piperidin-4-yl)-1H-benzo[d]imidazol-2(3H)-one, and 8-(4-(1-aminocyclobutyl)phenyl)-9-phenyl-[1,2,4]triazolo[3,4-f][1,6]naphthyridin-3(2H)-one) were prepared in 10% DMSO at 10-fold the desired final concentration, and added to each well of a reaction plate (Corning 96-well half-area solid black nonbinding surface plate) in a volume of 2.5 μL. […] After a 20 minute pre-incubation at room temperature, the kinase reaction was initiated by the addition of 5 μL of an activation mixture diluted in assay buffer containing biotinylated STKS3, PDK1, MAPKAPK2, DOPS/DOPC, PtdIns(3,4,5)P3, and ATP for final concentrations of 150 nM biotinylated STKS3, 1 nM (AKT1), 2.5 nM (AKT2), or 0.4 nM (AKT3) PDK1, 0.8 nM (AKT1), 2 nM (AKT2), or 0.3 nM (AKT3) MK2, 5.5 μM DOPS, 5.5 μM DOPC, 0.5 μM PtdIns(3,4,5)P3, and 50 μM ATP. The plates were incubated for 30 minutes at room temperature, and then stopped by the addition of 25 μL HTRF Detection Buffer containing phospho-STK antibody-Eu^3+-cryptate and streptavidin labeled XL665 antibody, at dilutions of 1:192 and 1:500 respectively. Final assay dilutions of phospho-STK antibody-Eu^3+-cryptate and streptavidin labeled XL665 antibody were 1:384 and 1:1,000 respectively. Assay plates were incubated for 60 minutes at room temperature, and the plates were read on a Perkin Elmer Envision Multilabel plate reader (excitation: 320 nm, emission I: 665 nm, emission II: 615 nm).

AKT1, sequence (P31749 whole entry): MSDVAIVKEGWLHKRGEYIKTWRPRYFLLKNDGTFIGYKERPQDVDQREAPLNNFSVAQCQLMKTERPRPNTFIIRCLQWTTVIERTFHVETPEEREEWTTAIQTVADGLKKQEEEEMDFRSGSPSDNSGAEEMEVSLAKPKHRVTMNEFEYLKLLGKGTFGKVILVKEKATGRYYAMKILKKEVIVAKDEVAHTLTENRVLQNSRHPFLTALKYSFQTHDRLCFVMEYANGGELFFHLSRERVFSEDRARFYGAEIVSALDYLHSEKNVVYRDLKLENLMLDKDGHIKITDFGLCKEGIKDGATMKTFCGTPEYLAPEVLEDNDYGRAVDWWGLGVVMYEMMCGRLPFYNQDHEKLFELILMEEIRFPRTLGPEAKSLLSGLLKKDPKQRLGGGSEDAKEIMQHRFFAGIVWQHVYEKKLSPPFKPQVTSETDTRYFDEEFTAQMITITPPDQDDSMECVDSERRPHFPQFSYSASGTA

Row | Compound | IC50 [µM]
1 | CC(C)(C)OC(=O)NC1CCN(C(=O)c2ccc(-c3nnc4n3-c3cccnc3Nc3ccccc3-4)cc2)CC1 [Example 210, tert-butyl (1-(4-(9H-benzo[f]pyrido[2,3-b][1,2,4]triazolo[4,3-d][1,4]diazepin-3-yl)benzoyl)piperidin-4-yl)carbamate] | 56
2 | COc1cccc(C(=O)NC2CCN(Cc3ccc(-c4nnc5n4-c4cccnc4Nc4ccccc4-5)cc3)CC2)c1 [Example 215, N-(1-(4-(9H-benzo[f]pyrido[2,3-b][1,2,4]triazolo[4,3-d][1,4]diazepin-3-yl)benzyl)piperidin-4-yl)-3-methoxybenzamide] | 7.6
